Measurements published in patent US4818760A, “Derivatives of pyridylsulfinyl(benz-or thieno-)imidazoles and their use as gastric secretion inhibiting substances” (Chemie Linz Aktiengesellschaft, priority 1986, dated 1989).

Target: H^+ /K^+ -ATPase (Homo sapiens, UniProt P20648)
Experiment: Inhibition of H^+ /K^+ -ATPase (comparison experiment / enzyme test)
Format: biochemical

Chain of H^+ /K^+ -ATPase (P20648 whole entry): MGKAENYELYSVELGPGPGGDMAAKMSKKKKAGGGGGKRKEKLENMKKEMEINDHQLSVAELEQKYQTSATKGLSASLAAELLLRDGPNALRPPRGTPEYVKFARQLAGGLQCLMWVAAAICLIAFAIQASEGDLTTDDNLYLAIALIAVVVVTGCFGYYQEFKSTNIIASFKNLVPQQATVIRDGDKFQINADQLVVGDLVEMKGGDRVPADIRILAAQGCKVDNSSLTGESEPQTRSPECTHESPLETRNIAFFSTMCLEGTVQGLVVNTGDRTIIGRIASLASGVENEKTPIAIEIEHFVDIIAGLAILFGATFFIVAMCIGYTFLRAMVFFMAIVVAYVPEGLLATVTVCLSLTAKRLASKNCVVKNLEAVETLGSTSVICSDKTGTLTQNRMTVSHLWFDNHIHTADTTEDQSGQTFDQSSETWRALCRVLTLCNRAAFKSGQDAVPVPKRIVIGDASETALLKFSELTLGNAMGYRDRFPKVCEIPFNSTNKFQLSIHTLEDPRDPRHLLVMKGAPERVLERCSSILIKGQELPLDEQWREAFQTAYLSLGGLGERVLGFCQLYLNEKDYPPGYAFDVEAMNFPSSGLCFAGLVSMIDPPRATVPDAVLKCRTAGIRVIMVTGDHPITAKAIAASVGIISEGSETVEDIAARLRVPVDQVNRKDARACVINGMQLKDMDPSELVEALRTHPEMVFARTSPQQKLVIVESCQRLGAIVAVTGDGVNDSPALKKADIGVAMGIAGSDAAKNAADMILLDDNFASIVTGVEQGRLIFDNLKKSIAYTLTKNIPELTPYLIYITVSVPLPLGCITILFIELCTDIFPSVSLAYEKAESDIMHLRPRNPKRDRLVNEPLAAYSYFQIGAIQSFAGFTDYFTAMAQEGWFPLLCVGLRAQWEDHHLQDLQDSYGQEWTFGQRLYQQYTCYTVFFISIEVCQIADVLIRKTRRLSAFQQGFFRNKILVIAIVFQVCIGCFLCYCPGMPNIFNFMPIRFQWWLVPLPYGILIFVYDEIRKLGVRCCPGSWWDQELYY
Chain of H^+ /K^+ -ATPase (P51164 whole entry partner): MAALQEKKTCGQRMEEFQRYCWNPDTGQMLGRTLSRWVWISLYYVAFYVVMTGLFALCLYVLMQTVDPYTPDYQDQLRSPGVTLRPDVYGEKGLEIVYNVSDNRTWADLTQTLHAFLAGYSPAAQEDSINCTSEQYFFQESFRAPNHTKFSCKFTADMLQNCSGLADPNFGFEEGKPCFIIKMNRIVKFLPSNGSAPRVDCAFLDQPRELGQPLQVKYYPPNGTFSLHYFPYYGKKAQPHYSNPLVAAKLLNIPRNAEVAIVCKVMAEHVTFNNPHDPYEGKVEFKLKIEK

IC50: 5.3 µM
SMILES: COc1c(C)cnc(C[S+]([O-])c2nc3cc(C4=NCCO4)ccc3[nH]2)c1C (centres unmarked) [Substance A, 5-(4,5-dihydro-2-oxazolyl)-2-((3,5-dimethyl-4-methoxy-2-pyridyl)methylsulfinyl)-1H-benzimidazole]
inhibition of H^+ /K^+ -ATPase relative to omeprazole (comparison with omeprazole): approximately five times greater than does omeprazole
